Data on 40 compounds can be found in patent publication US6911542B2, “Pyrazino[1′,2′:1,6]pyrido[3,4b]indole derivatives” (Lilly Icos LLC., priority 2000, dated 2005).

What is called IC50 is the concentration at which inhibition is half-maximal.

This assay concerns the target T1, human recombinant PDE5 (Homo sapiens, UniProt O76074).
T1 construct: host or cells: Saccharomyces cerevisiae, protease-deficient strain BJ2-54 (ATCC 74465)
In words: cGMP-PDE one-step inhibition assay, human recombinant PDE5. It counts as biochemical. As to conditions: 0.15 μM 8-[H3]-cGMP, 30 min incubation. As to the method: The compounds of structural formula (I) were tested for an ability to inhibit PDE5. The ability of a compound to inhibit PDE5 activity is related to the IC50 value for the compound, i.e., the concentration of inhibitor required for 50% inhibition of enzyme activity. The IC50 value for compounds of structural formula (I) were determined using recombinant human PDE5.
The production of recombinant human PDEs and the IC50 determinations can be accomplished by well-known methods in the art. Exemplary methods are described as follows:
Recombinant production of human PDE1B, PDE2, PDE4A, PDE4B, PDE4C, PDE4D, PDE5, and PDE7 was carried out similarly to that described in Example 7 of U.S. Pat. No. 5,702,936, incorporated herein by reference, except that the yeast transformation vector employed, which is derived from the basic ADH2 plasmid described in Price et al., Methods in Enzymology, 185, pp. 308-318 (1990), incorporated yeast ADH2 promoter and terminator sequences and the Saccharomyces cerevisiae host was the protease-deficient strain BJ2-54 deposited on Aug. 31, 1998 with the American Type Culture Collection, Manassas, Va., under accession number ATCC 74465. Transformed host cells were grown in 2×SC-leu medium, pH 6.2, with trace metals, and vitamins. After 24 hours, YEP medium-containing glycerol was added to a final concentration of 2×YET/3% glycerol. Approximately 24 hr later, cells were harvested, washed, and stored at −70° C. […]
Cell pellets (29 g) were thawed on ice with an equal volume of Lysis Buffer (25 mM Tris HCl, pH 8, 5 mM MgCl2, 0.25 mM DTT, 1 mM benzamidine, and 10 μM ZnSO4). Cells were lysed in a Microfluidizer® (Microfluidics Corp.) using nitrogen at 20,000 psi. The lysate was centrifuged and filtered through 0.45 μm disposable filters. The filtrate was applied to a 150 mL column of Q SEPHAROSE® Fast-Flow (Pharmacia). The column was washed with 1.5 volumes of Buffer A (20 mM Bis-Tris Propane, pH 6.8, 1 mM MgCl2, 0.25 mM DTT, 10 μM ZnSO4) and eluted with a step gradient of 125 mM NaCl in Buffer A followed by a linear gradient of 125-1000 mM NaCl in Buffer A. Active fractions from the linear gradient were applied to a 180 mL hydroxyapatite column in Buffer B (20 mM Bis-Tris Propane (pH 6.8), 1 mM MgCl2, 0.25 mM DTT, 10 μM ZnSO4, and 250 mM KCl). After loading, the column was washed with 2 volumes of Buffer B and eluted with a linear gradient of 0-125 mM potassium phosphate in Buffer B. Active fractions were pooled, precipitated with 60% ammonium sulfate, and resuspended in Buffer C (20 mM Bis-Tris Propane, pH 6.8, 125 mM NaCl, 0.5 mM DTT, and 10 μM ZnSO4). The pool was applied to a 140 mL column of […]® S-300 HR and eluted with Buffer C. Active fractions were diluted to 50% glycerol and stored at −20° C.
cGMP-PDE activity of compounds of the present invention was measured using a one-step assay adapted from Wells et al., Biochim. Biophys. Acta, 384, 430 (1975). The reaction medium contained 50 mM Tris-HCl, pH 7.5, 5 mM magnesium acetate, 250 μg/ml 5′-Nucleotidase, 1 mM EGTA, and 0.15 μM 8-[H^3]-cGMP. Unless otherwise indicated, the enzyme used was a human recombinant PDE5 (ICOS Corp., Bothell, Wash.).
Compounds of the invention were dissolved in DMSO finally present at 2% in the assay.
With `NS(=O)(=O)c1ccc(CCN2CC(=O)N3[C@H](c4ccc5c(c4)OCO5)c4[nH]c5ccccc5c4C[C@@H]3C2=O)cc1` [Example 1, (6R-trans)-6-(1,3-Benzodioxol-5-yl)-2,3,6,7,12,12a-hexahydro-2-[2-(4-phenylsulfamoyl)-ethyl]pyrazino[1′,2′:1,6]pyrido[3,4-b]indole-1,4-dione], the IC50 turned out to be 1.4 nM. For the compound `CON1CC(=O)N2[C@H](c3ccc4c(c3)OCO4)c3[nH]c4ccccc4c3C[C@@H]2C1=O` [Example 3, (6R,12aR)-6-Benzo[1,3]dioxol-5-yl-2-methoxy-2,3,6,7,12,12a-hexahydropyrazino[1′,2′:1,6]-pyrido[3,4-b]indole-1,4-dione], the IC50 is 2.5 nM. As for `NN1CC(=O)N2[C@H](c3ccc4c(c3)OCO4)c3[nH]c4ccccc4c3C[C@@H]2C1=O` [Example 4, (6R,12aR)-2-Amino-6-benzo[1,3]dioxo-5-yl-2,3,6,7,12,12a-hexahydropyrazino[1′, 2′:1,6]-pyrido[3,4-b]indole-1,4-dione], the IC50 amounted to 1.8 nM. Then `CC1C(=O)N2[C@H](c3ccc4c(c3)OCO4)c3[nH]c4ccccc4c3C[C@@H]2C(=O)N1CCN(C)C` (stereo partly shown) [Example 8], with 130 nM.

With `O=C1[C@H]2Cc3c([nH]c4ccccc34)[C@@H](c3ccc4c(c3)OCO4)N2C(=O)CN1CCCN1CCOCC1` [Example 18], the IC50 amounted to 40 nM. Then `CCOC(=O)CCN1CC(=O)N2[C@H](c3ccc4c(c3)OCO4)c3[nH]c4ccccc4c3C[C@@H]2C1=O` [Example 24], with 9.6 nM. For `COCCCN1CC(=O)N2[C@H](c3ccc4c(c3)OCO4)c3[nH]c4ccccc4c3C[C@@H]2C1=O` [Example 25], the IC50 amounted to 10 nM. `CC(=O)NCCN1CC(=O)N2[C@H](c3ccc4c(c3)OCO4)c3[nH]c4ccccc4c3C[C@@H]2C1=O` [Example 26]: the IC50 is 10 nM. Regarding `O=C1CCCN1CCCN1CC(=O)N2[C@H](c3ccc4c(c3)OCO4)c3[nH]c4ccccc4c3C[C@@H]2C1=O` [Example 27], the IC50 is 5.4 nM. Then `O=C(CN1CC(=O)N2[C@H](c3ccc4c(c3)OCO4)c3[nH]c4ccccc4c3C[C@@H]2C1=O)Nc1ccccc1` [Example 28], with 3.9 nM.

Take `COCCN1CC(=O)N2[C@H](c3ccc4c(c3)OCO4)c3[nH]c4ccccc4c3C[C@@H]2C1=O` [Example 29]: the IC50 was determined as 5.9 nM. The same measure for `O=C(CN1CC(=O)N2[C@H](c3ccc4c(c3)OCO4)c3[nH]c4ccccc4c3C[C@@H]2C1=O)NCc1ccccc1` [Example 30]: 20 nM; for `O=C(CN1CC(=O)N2[C@H](c3ccc4c(c3)OCO4)c3[nH]c4ccccc4c3C[C@@H]2C1=O)N1CCCCC1` [Example 31]: 20 nM; for `O=C1[C@H]2Cc3c([nH]c4ccccc34)[C@@H](c3ccc4c(c3)OCO4)N2C(=O)CN1CCCn1ccnc1` [Example 32]: 10 nM. For `O=C(CCN1CC(=O)N2[C@H](c3ccc4c(c3)OCO4)c3[nH]c4ccccc4c3C[C@@H]2C1=O)NC1CCCCC1` [Example 33], the IC50 was 10 nM. For the compound `CCCCN(C)C(=O)CCCN1CC(=O)N2[C@H](c3ccc4c(c3)OCO4)c3[nH]c4ccccc4c3C[C@@H]2C1=O` [Example 34], the IC50 worked out at 10 nM.

With `O=C(CCCN1CC(=O)N2[C@H](c3ccc4c(c3)OCO4)c3[nH]c4ccccc4c3C[C@@H]2C1=O)NC1CCCCC1` [Example 35], the IC50 came out at 4.3 nM. Turning to `O=C(O)CCN1CC(=O)N2[C@H](c3ccc4c(c3)OCO4)c3[nH]c4ccccc4c3C[C@@H]2C1=O` [Example 36], the half-inhibitory concentration (IC50) is 50 nM. Then `O=C(CN1CC(=O)N2[C@H](c3ccc4c(c3)OCO4)c3[nH]c4ccccc4c3C[C@@H]2C1=O)Nc1ccncc1` [Example 38], with 3.9 nM; and `CCOCCCN1CC(=O)N2[C@H](c3ccc4c(c3)OCO4)c3[nH]c4ccccc4c3C[C@@H]2C1=O` [Example 39], with 30 nM. For the compound `O=C1[C@H]2Cc3c([nH]c4ccccc34)[C@@H](c3ccc4c(c3)OCO4)N2C(=O)CN1CCOCCO` [Example 40], the IC50 worked out at 10 nM. Take `O=C(CN1CC(=O)N2[C@H](c3ccc4c(c3)OCO4)c3[nH]c4ccccc4c3C[C@@H]2C1=O)N1CCN(c2ccccc2)CC1` [Example 42]: the IC50 amounted to 140 nM. The same measure for `CN(C(=O)CN1CC(=O)N2[C@H](c3ccc4c(c3)OCO4)c3[nH]c4ccccc4c3C[C@@H]2C1=O)c1ccccc1` [Example 43]: 100 nM; for `CN1CCN(CCN2CC(=O)N3[C@H](c4ccc5c(c4)OCO5)c4[nH]c5ccccc5c4C[C@@H]3C2=O)CC1` [Example 46]: 50 nM. Then `O=C(O)c1ccc(CN2CC(=O)N3[C@H](c4ccc5c(c4)OCO5)c4[nH]c5ccccc5c4C[C@@H]3C2=O)cc1` [Example 47], with 4.3 nM; and `O=C1[C@H]2Cc3c([nH]c4ccccc34)[C@@H](c3ccc4c(c3)OCO4)N2C(=O)CN1Cc1ccc(NS(=O)(=O)C(F)(F)F)cc1` [Example 57], with 5.1 nM.

Take `NS(=O)(=O)c1ccc(CN2CC(=O)N3[C@H](c4ccc5c(c4)OCO5)c4[nH]c5ccccc5c4C[C@@H]3C2=O)cc1` [Example 58]: the IC50 came to 20 nM. Consider `N#Cc1ccc(CN2CC(=O)N3[C@H](c4ccc5c(c4)OCO5)c4[nH]c5ccccc5c4C[C@@H]3C2=O)cc1` [Example 59], for which the IC50 worked out at 70 nM.

`N#CCN1CC(=O)N2[C@H](c3ccc4c(c3)OCO4)c3[nH]c4ccccc4c3C[C@@H]2C1=O` [Example 60]: the IC50 was found to be 10 nM. Then `COC(=O)c1ccc(CN2CC(=O)N3[C@H](c4ccc5c(c4)OCO5)c4[nH]c5ccccc5c4C[C@@H]3C2=O)cc1` [Example 62], with 20 nM. The same measure for `O=C1[C@H]2Cc3c([nH]c4ccccc34)[C@@H](c3ccc4c(c3)OCO4)N2C(=O)CN1CCc1cnc[nH]1` [Example 64]: 20 nM; for `Nc1ccc(CCN2CC(=O)N3[C@H](c4ccc5c(c4)OCO5)c4[nH]c5ccccc5c4C[C@@H]3C2=O)cc1` [Example 66]: 40 nM; for `NS(=O)(=O)c1ccc(CCN2CC(=O)N3[C@H](c4ccc5c(c4)OCO5)c4[nH]c5ccccc5c4C[C@@H]3C2=O)cc1` [Example 67]: 6.2 nM. `O=C(CN1CC(=O)N2[C@H](c3ccc4c(c3)OCO4)c3[nH]c4ccccc4c3C[C@@H]2C1=O)OCc1ccccc1` [Example 68]: the 50% inhibitory concentration (IC50) was found to be 40 nM.

Regarding `O=C(O)CN1CC(=O)N2[C@H](c3ccc4c(c3)OCO4)c3[nH]c4ccccc4c3C[C@@H]2C1=O` [Example 69], the IC50 amounted to 20 nM. Regarding `CC(C)(C)OC(=O)CCN1CC(=O)N2[C@H](c3ccc4c(c3)OCO4)c3[nH]c4ccccc4c3C[C@@H]2C1=O` [Example 71], the half-inhibitory concentration (IC50) amounted to 10 nM. Then `O=C(O)CCN1CC(=O)N2[C@H](c3ccc4c(c3)OCO4)c3[nH]c4ccccc4c3C[C@@H]2C1=O` [Example 72], with 2.3 nM; and `O=C1[C@H]2Cc3c([nH]c4ccccc34)[C@@H](c3ccc4c(c3)OCO4)N2C(=O)CN1Cc1cccc(NS(=O)(=O)C(F)(F)F)c1` [Example 77], with 1.7 nM; and `O=C1[C@H]2Cc3c([nH]c4ccccc34)[C@@H](c3ccc4c(c3)OCO4)N2C(=O)CN1CCCn1cccn1` [Example 79], with 6.3 nM. The same measure for `CN(C)CCOc1ccc(CN2CC(=O)N3[C@H](c4ccc5c(c4)OCO5)c4[nH]c5ccccc5c4C[C@@H]3C2=O)cc1` [Example 81]: 290 nM.
